# Literature values in patent US20100143437A1, “IMPLANTABLE ANALGESIC” (priority 2008, published 2010).
# Conditions: in adults
smiles,measurement,value
"CCCCN1CCCCC1C(=O)Nc1c(C)cccc1C (stereo not shown) [bupivacaine, 1-butyl-N-(2,6-dimethylphenyl) piperidine-2-carboxamide]",half life,approximately 210 minutes
